Data from patent publication US20230085307A1, “PYRIDAZINONE COMPOUND AND HERBICIDE” (NISSAN CHEMICAL CORPORATION, priority 2019, published 2023).

How the values were obtained:
[1] = tested on: lambsquarters; experiment: Test Example 5: herbicidal effect by foliage application, plastic box (Table 20, symbol O); format: in vivo, lambsquarters (Chenopodium album); details: foliage application, 3 weeks after application
Summary of the method: (§1)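 Sow seeds spot-wise in sterilized diluvial soil; cover with ~1.5 cm soil. Grow 14 days in greenhouse, 25° C. to 30° C. Spray foliage with emulsion diluted to predetermined amount. Rate effect after 3 weeks.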

[2] = tested on: Japanese bulrush; experiment: Test Example 2: herbicidal activity, application during weed generation under submerged conditions (Table 17, symbol B); format: in vivo, Japanese bulrush (Schoenoplectus juncoides); details: application during weed generation, submerged conditions
Summary of the method: (§2)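 Alluvial soil in Wagner pots was flooded to 4 cm depth and sown with the three weeds together; pots were kept in a greenhouse at 25° C. to 30° C. At the one to two leaf stage, an emulsion formulation diluted in water to a set rate went onto the water surface; scored three weeks later.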

[3] = tested on: southern crabgrass; experiment: Test Example 5: herbicidal effect by foliage application, plastic box (Table 20, symbol F); format: in vivo, southern crabgrass (Digitaria ciliaris); details: foliage application, 3 weeks after application
Summary of the method: as §1

[4] = tested on: green foxtail; experiment: Test Example 4: herbicidal effect by soil treatment (Table 19, symbol G); format: in vivo, green foxtail (Setaria viridis)
Summary of the method: (§3)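 Soil-surface application: an emulsion agent diluted with water to the predetermined dose is sprayed uniformly over seeds lying under roughly 1.5 cm of sterilized diluvial soil. Boxes stay in a greenhouse at 25° C. to 30° C. Three weeks later, each species is graded on previously defined criteria.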

[5] = tested on: Italian ryegrass; experiment: Test Example 4: herbicidal effect by soil treatment (Table 19, symbol K); format: in vivo, Italian ryegrass (Lolium multiflorum)
Summary of the method: as §3

[6] = tested on: southern crabgrass; experiment: Test Example 4: herbicidal effect by soil treatment (Table 19, symbol F); format: in vivo, southern crabgrass (Digitaria ciliaris)
Summary of the method: as §3

[7] = tested on: barnyard grass; experiment: Test Example 3: herbicidal effect by foliage application, Wagner pot (Table 18, symbol H); format: in vivo, barnyard grass (Echinochloa crus-galli)
Summary of the method: (§4)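 Plants were sown in alluvial soil held under 0.1–0.5 cm standing water and grown 14 days in a greenhouse at 25–30 °C. An emulsifiable formulation, water-diluted to the set dose, was then sprayed onto the foliage, and effects were scored three weeks later using previously defined criteria.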

[8] = tested on: windgrass; experiment: Test Example 5: herbicidal effect by foliage application, plastic box (Table 20, symbol L); format: in vivo, windgrass (Apera spica-venti); details: foliage application, 3 weeks after application
Summary of the method: as §1

[9] = tested on: late watergrass; experiment: Test Example 2: herbicidal activity, application during weed generation under submerged conditions (Table 17, symbol A); format: in vivo, late watergrass (Echinochloa oryzicola); details: application during weed generation, submerged conditions
Summary of the method: as §2

[10] = tested on: velvetleaf; experiment: Test Example 4: herbicidal effect by soil treatment (Table 19, symbol M); format: in vivo, velvetleaf (Abutilon theophrasti)
Summary of the method: as §3

[11] = tested on: blackgrass; experiment: Test Example 5: herbicidal effect by foliage application, plastic box (Table 20, symbol J); format: in vivo, blackgrass (Alopecurus myosuroides); details: foliage application, 3 weeks after application
Summary of the method: as §1

[12] = tested on: lambsquarters; experiment: Test Example 4: herbicidal effect by soil treatment (Table 19, symbol O); format: in vivo, lambsquarters (Chenopodium album)
Summary of the method: as §3

[13] = tested on: wild oat; experiment: Test Example 5: herbicidal effect by foliage application, plastic box (Table 20, symbol I); format: in vivo, wild oat (Avena fatua); details: foliage application, 3 weeks after application
Summary of the method: as §1

[14] = tested on: barnyard grass; experiment: Test Example 5: herbicidal effect by foliage application, plastic box (Table 20, symbol H); format: in vivo, barnyard grass (Echinochloa crus-galli); details: foliage application, 3 weeks after application
Summary of the method: as §1

[15] = tested on: wild oat; experiment: Test Example 4: herbicidal effect by soil treatment (Table 19, symbol I); format: in vivo, wild oat (Avena fatua)
Summary of the method: as §3

[16] = tested on: redroot pigweed; experiment: Test Example 4: herbicidal effect by soil treatment (Table 19, symbol N); format: in vivo, redroot pigweed (Amaranthus retroflexus)
Summary of the method: as §3

[17] = tested on: persian speedwell; experiment: Test Example 5: herbicidal effect by foliage application, plastic box (Table 20, symbol R); format: in vivo, Persian speedwell (Veronica persica); details: foliage application, 3 weeks after application
Summary of the method: as §1

[18] = tested on: chickweed; experiment: Test Example 4: herbicidal effect by soil treatment (Table 19, symbol P); format: in vivo, common chickweed (Stellaria media)
Summary of the method: as §3

[19] = tested on: barnyard grass; experiment: Test Example 4: herbicidal effect by soil treatment (Table 19, symbol H); format: in vivo, barnyard grass (Echinochloa crus-galli)
Summary of the method: as §3

[20] = tested on: rice flat sedge; experiment: Test Example 3: herbicidal effect by foliage application, Wagner pot (Table 18, symbol E); format: in vivo, rice flat sedge (Cyperus iria)
Summary of the method: as §4

[21] = tested on: Italian ryegrass; experiment: Test Example 5: herbicidal effect by foliage application, plastic box (Table 20, symbol K); format: in vivo, Italian ryegrass (Lolium multiflorum); details: foliage application, 3 weeks after application
Summary of the method: as §1

C=CCC(C)Oc1ccc(-c2sc3ccccc3c2-c2c(O)c(C)nn(C)c2=O)cc1 (racemic) [1-213]
effect on lambsquarters (O) ([1]; 320 g/ha): 5 (Herbicidal rate of 90% or more (almost completely withered)) | herbicidal effect rating, B: Japanese bulrush ([2]; AAH 320 g/ha): 3 (Herbicidal rate of 40% or more and less than 70%) | effect on southern crabgrass (F) ([3]; 320 g/ha): 5 (Herbicidal rate of 90% or more (almost completely withered)) | G: green foxtail, herbicidal effect rating ([4]; AAH 320 g/ha): 0 (Herbicidal rate of 5% or less (almost no effect)) | K: Italian ryegrass, herbicidal effect rating ([5]; AAH 320 g/ha): 3 (Herbicidal rate of 40% or more and less than 70%) | F: southern crabgrass, herbicidal effect rating ([6]; AAH 320 g/ha): 0 (Herbicidal rate of 5% or less (almost no effect)) | herbicidal effect on H (barnyard grass), rating 0-5 ([7]; 320 g/ha): 5 (Herbicidal rate of 90% or more (almost completely withered)) | effect on windgrass (L) ([8]; 320 g/ha): 5 (Herbicidal rate of 90% or more (almost completely withered)) | herbicidal effect rating, A: late watergrass ([9]; AAH 320 g/ha): 3 (Herbicidal rate of 40% or more and less than 70%) | M: velvetleaf, herbicidal effect rating ([10]; AAH 320 g/ha): 0 (Herbicidal rate of 5% or less (almost no effect)) | effect on blackgrass (J) ([11]; 320 g/ha): 5 (Herbicidal rate of 90% or more (almost completely withered)) | O: lambsquarters, herbicidal effect rating ([12]; AAH 320 g/ha): 0 (Herbicidal rate of 5% or less (almost no effect)) | effect on wild oat (I) ([13]; 320 g/ha): 3 (Herbicidal rate of 40% or more and less than 70%) | effect on barnyard grass (H) ([14]; 320 g/ha): 5 (Herbicidal rate of 90% or more (almost completely withered)) | I: wild oat, herbicidal effect rating ([15]; AAH 320 g/ha): 0 (Herbicidal rate of 5% or less (almost no effect)) | N: redroot pigweed, herbicidal effect rating ([16]; AAH 320 g/ha): 0 (Herbicidal rate of 5% or less (almost no effect)) | effect on persian speedwell (R) ([17]; 320 g/ha): 5 (Herbicidal rate of 90% or more (almost completely withered)) | P: chickweed, herbicidal effect rating ([18]; AAH 320 g/ha): 3 (Herbicidal rate of 40% or more and less than 70%) | H: barnyard grass, herbicidal effect rating ([19]; AAH 320 g/ha): 0 (Herbicidal rate of 5% or less (almost no effect)) | herbicidal effect on E (rice flat sedge), rating 0-5 ([20]; 320 g/ha): 3 (Herbicidal rate of 40% or more and less than 70%) | effect on Italian ryegrass (K) ([21]; 320 g/ha): 4 (Herbicidal rate of 70% or more and less than 90%)

C#CC(C)Oc1ccc(-c2sc3ccccc3c2-c2c(O)c(C)nn(C)c2=O)cc1 (racemic) [1-217]
effect on lambsquarters (O) ([1]; 320 g/ha): 5 (Herbicidal rate of 90% or more (almost completely withered)) | herbicidal effect rating, B: Japanese bulrush ([2]; AAH 320 g/ha): 3 (Herbicidal rate of 40% or more and less than 70%) | effect on southern crabgrass (F) ([3]; 320 g/ha): 4 (Herbicidal rate of 70% or more and less than 90%) | G: green foxtail, herbicidal effect rating ([4]; AAH 320 g/ha): 3 (Herbicidal rate of 40% or more and less than 70%) | K: Italian ryegrass, herbicidal effect rating ([5]; AAH 320 g/ha): 0 (Herbicidal rate of 5% or less (almost no effect)) | F: southern crabgrass, herbicidal effect rating ([6]; AAH 320 g/ha): 0 (Herbicidal rate of 5% or less (almost no effect)) | herbicidal effect on H (barnyard grass), rating 0-5 ([7]; 320 g/ha): 5 (Herbicidal rate of 90% or more (almost completely withered)) | effect on windgrass (L) ([8]; 320 g/ha): 5 (Herbicidal rate of 90% or more (almost completely withered)) | herbicidal effect rating, A: late watergrass ([9]; AAH 320 g/ha): 0 (Herbicidal rate of 5% or less (almost no effect)) | M: velvetleaf, herbicidal effect rating ([10]; AAH 320 g/ha): 0 (Herbicidal rate of 5% or less (almost no effect)) | effect on blackgrass (J) ([11]; 320 g/ha): 4 (Herbicidal rate of 70% or more and less than 90%) | O: lambsquarters, herbicidal effect rating ([12]; AAH 320 g/ha): 2 (Herbicidal rate of 20% or more and less than 40%) | effect on wild oat (I) ([13]; 320 g/ha): 3 (Herbicidal rate of 40% or more and less than 70%) | effect on barnyard grass (H) ([14]; 320 g/ha): 5 (Herbicidal rate of 90% or more (almost completely withered)) | I: wild oat, herbicidal effect rating ([15]; AAH 320 g/ha): 0 (Herbicidal rate of 5% or less (almost no effect)) | N: redroot pigweed, herbicidal effect rating ([16]; AAH 320 g/ha): 4 (Herbicidal rate of 70% or more and less than 90%) | effect on persian speedwell (R) ([17]; 320 g/ha): 5 (Herbicidal rate of 90% or more (almost completely withered)) | P: chickweed, herbicidal effect rating ([18]; AAH 320 g/ha): 5 (Herbicidal rate of 90% or more (almost completely withered)) | herbicidal effect on E (rice flat sedge), rating 0-5 ([20]; 320 g/ha): 3 (Herbicidal rate of 40% or more and less than 70%) | effect on Italian ryegrass (K) ([21]; 320 g/ha): 5 (Herbicidal rate of 90% or more (almost completely withered))

C#CC(C)Oc1ccc(-c2sc3ccccc3c2-c2c(OCOCCOC)c(C)nn(C)c2=O)cc1 (racemic) [1-218]
effect on lambsquarters (O) ([1]; 187 g/ha): 4 (Herbicidal rate of 70% or more and less than 90%) | herbicidal effect rating, B: Japanese bulrush ([2]; AAH 100 g/ha): 3 (Herbicidal rate of 40% or more and less than 70%) | effect on southern crabgrass (F) ([3]; 187 g/ha): 0 (Herbicidal rate of 5% or less (almost no effect)) | G: green foxtail, herbicidal effect rating ([4]; AAH 187 g/ha): 3 (Herbicidal rate of 40% or more and less than 70%) | K: Italian ryegrass, herbicidal effect rating ([5]; AAH 187 g/ha): 0 (Herbicidal rate of 5% or less (almost no effect)) | F: southern crabgrass, herbicidal effect rating ([6]; AAH 187 g/ha): 0 (Herbicidal rate of 5% or less (almost no effect)) | herbicidal effect on H (barnyard grass), rating 0-5 ([7]; 100 g/ha): 4 (Herbicidal rate of 70% or more and less than 90%) | effect on windgrass (L) ([8]; 187 g/ha): 0 (Herbicidal rate of 5% or less (almost no effect)) | herbicidal effect rating, A: late watergrass ([9]; AAH 100 g/ha): 3 (Herbicidal rate of 40% or more and less than 70%) | M: velvetleaf, herbicidal effect rating ([10]; AAH 187 g/ha): 0 (Herbicidal rate of 5% or less (almost no effect)) | effect on blackgrass (J) ([11]; 187 g/ha): 4 (Herbicidal rate of 70% or more and less than 90%) | O: lambsquarters, herbicidal effect rating ([12]; AAH 187 g/ha): 3 (Herbicidal rate of 40% or more and less than 70%) | effect on wild oat (I) ([13]; 187 g/ha): 0 (Herbicidal rate of 5% or less (almost no effect)) | effect on barnyard grass (H) ([14]; 187 g/ha): 3 (Herbicidal rate of 40% or more and less than 70%) | I: wild oat, herbicidal effect rating ([15]; AAH 187 g/ha): 0 (Herbicidal rate of 5% or less (almost no effect)) | N: redroot pigweed, herbicidal effect rating ([16]; AAH 187 g/ha): 2 (Herbicidal rate of 20% or more and less than 40%) | effect on persian speedwell (R) ([17]; 187 g/ha): 5 (Herbicidal rate of 90% or more (almost completely withered)) | P: chickweed, herbicidal effect rating ([18]; AAH 187 g/ha): 1 (Herbicidal rate of 5% or more and less than 20%) | H: barnyard grass, herbicidal effect rating ([19]; AAH 187 g/ha): 2 (Herbicidal rate of 20% or more and less than 40%) | herbicidal effect on E (rice flat sedge), rating 0-5 ([20]; 100 g/ha): 4 (Herbicidal rate of 70% or more and less than 90%) | effect on Italian ryegrass (K) ([21]; 187 g/ha): 2 (Herbicidal rate of 20% or more and less than 40%)
